Laboratory results taken from patent publication US5821251A, “Nitrogen heterocycles” (John Wyeth & Brother Limited, priority 1994, dated 1998).

Legend:
[1] = system: transient outward potassium current (TOC) in GH3 rat pituitary cell line; test: Procedure 2: blocking transient outward potassium currents (TOC) in the GH3 rat pituitary cell line; assay type: cell-based; settings: GH3 cells; for % Block of TOC, PROCEDURE 2 GH3 %: 100 μM
Description: The compounds were also tested for blocking transient outward potassium currents (TOC) in the GH3 rat pituitary cell line according to the procedure below:
GH3 cells were obtained from either Flow Laboratories or European Centre for Animal Cell Cultures (Porton Down), and maintained in tissue culture using standard procedures and media for this cell line. Cells were plated on 35 mm plastic dishes and used subsequently for electophysiology with 1 to 10 days.
Currents were recorded using the whole-cell voltage clamp configuration of the patch clamp technique, using an Axopatch 1C amplifier (Axon Instruments). Patch electrodes were manufactured from aluminosilicate glass tubing (Clark Electomedical SM150F-10) and heat polished prior to use. Resistance was 1-5 M.OMEGA.. No electrode coating was necessary for whole-cell recording. Signal acquisition and analysis was performed using pClamp software (Axon Instruments). A p-on-4 subtraction procedure was used to remove leak and capacitative currents on line. A holding potential of -100 mV was routinely used: this avoided accumulation of slow voltage-dependent inactivation.
Two main protocols were used in testing drugs. 1) Current-voltage (I-V) curves were collected, with incrementing steps of either 10 or 20 mV. Full I-V curves were obtained both in control and drug solutions. 2) a `pharmacology` program, which involved single voltage steps fromm -100 to +60 mV, applied and collected at 20 s intervals. Compounds under investigation were applied via a `U` tube rapid application system to a small area of the recording chamber. Drug applications were always bracketed by control solutions to ensure reversibility. The recording chamber was continously perfused at 1-5 ml.min^-1. Results are expressed at % of control peak current (step form -100 to +60 mV). However, where drugs have a time dependent effect on TOC, i.e acceleration of TOC decay, results are also expressed as a % of total charge transferred within a defined period of the voltage step from -100 to +60 mV.
The standard extracellular solution contained (in mM): NaCl 135 (or choline or TRIS chloride); KCl 5; MgCl2 4; EGTA 1; TEACl 10; HEPES 10; glucose 25; pH set to 7.4 with NaOH. TTX was usually at 100-200 nM.
The intracellular (pipette) solution was comprised of (in mM): K aspartate 120; KCl 20; MgCl2 1; cAMP 1; MgATP 2; EGTA 10; HEPES 10; pH 7.4 with KOH. Other intracellular substrates were often used without noticeable effect. This solution was stored in 1 ml aliquots at -4° C., and filtered at 0.2 μm.
These recording solutions precluded activation of voltage dependent Na, Ca, delayed rectifier and Ca-activated K currents. The resulting whole-cell currents chiefly comprised the transient outward potassium current, switching on with third power kinetics reaching peak amplitudes of ~1 nA at +60 mV, and a double exponential decay (time constants of ~30 and 160 ms at +60 mV). There is no significant change in current amplitude within the normal recording period, which may extend for up to 90 min. One dish of cells usually lasts several hours.
The standard compound 4-aminopyridine is a block @ 1-5 mM. (80% block at 5 mM).

[2] = system: voltage gated potassium channels (transient outward current, TOC) in dorsal root ganglion (DRG) cells; test: Procedure 1: modulation of voltage-activated K^+ currents in dorsal root ganglion (DRG) cells, block of TOC; assay type: cell-based
Text: They may therefore by used to treat CNS disorders as described above such as depression, pain psychoses, anxiety, movement disorders (such as Parkinson's disease) and multiple sclerosis and in enhancing cognition, memory and learning.
Procedure 1 Modulation of voltage-activated K^+ currents in dorsal root ganglion (DRG) cells:
The method used in the culture or dorsal root ganglion cells is similar to that described by Wood et. al., Capsaicin induced ion fluxes in dorsal root ganglion cells in culture, J. Neuroscience, 8, 3208-3220) (1988). Dorsal root ganglia are dissected mainly from around the lumbar and thoracic vertebrae and placed in a conical centrifuge tube containing Ham's F14 nutrient mixture (F14:Imperial Laboratories) plus horse serum (HS: GIBCO or Flow). When all ganglia have been collected (ex ca. 14 pups) the excess medium is removed and the ganglia incubated for 30 min in "F14+HS" containing 0.1% collagenase Type 1A-S (Sigma). Excess medium is removed, ganglia washed in 4 ml F14 (no HS), resuspended and spun down at 900 g for 10 s. The supernatant is again removed and replaced with 1.8 ml F14 (no HS) plus 0.2 ml trypsin (GIBCO) at a final concentration of 0.25%. The ganglia are then incubated at 37° C. for 30 min agitating every 10 min to prevent clumping. The trypsinisation is inhibited by the addition of 6 ml "F14+HS" and cells are resuspended and centrifuged as before. The medium is removed and 2 ml added of "F14+HS" containing 0.4% DNAase 1 (Sigma). The ganglia are then triturated gently 15-20× using a siliconised pasteur pipette, filtered through a […] nylon mesh filter and collected into a centrifuge tube. The filter is further washed with 2 ml of "F14+HS" which is collected into the same tube. The suspension is spun at 900 g for 3 min, the supernatant removed and the cells resuspended in DRG Growth Medium (DRG-GM) which consists of: HAMS F14 nutrient mixture (40%, v/v), HS(10%, v/v) C6 conditioned medium (50%, v/v), penicillin/streptomycin (100 U/ml; 100 μg/ml) and NGF (30 μg/ml). Cells are then plated out onto five 60 mm poly-L-lysine-coated tissue culture petri dishes (see below).
After a few days in culture (3-7 days, usually), cells are resuspended from 60 mm dishes using a 0.25% solution of trypsin in F14. An equal volume of DRG-GM is added to inhibit the trypsin, the cells are spun at 900 g for 5 minutes and resuspended in 0.25-0.5 ml of DRG-GM. Neurites are removed by gentle trituration through a 21 g syringe needle (15-20 strokes) and a drop of the cell suspension is then placed on each of 5-6 poly-D-lysine- and laminin-coated 35 mm petri dishes (see below). After 30 minutes incubation at 37° C., each plate is flooded with ca 1.5 ml DRG-GM and after about 1 hour incubation, cells are ready for electrophysiological recording. This final step is carried out specifically in order to remove neurites which hinder good voltage-clamp of the cells.
2 ml of poly-D-lysine (Sigma), reconstituted in distilled water to 100 μg/ml, are added to each plate and left for 1-2 hours. Plates are then washed with water and left to dry. Laminin (5 μg/ml) is added as a drop to the centre of plates (previously coated with poly-D-Lys), left for 45 min before removal of excess and use of plates.
Recordings are made using an AxoClamp-2A (Axon Instruments Inc) switiching clamp amplifier using patch electrodes (4-8 Mohms), made from borosilicate glass capillary tubes (GC150TF-10, Clark Electromedical) and fire-polished. Electrodes are filled with (in mM): 140 K Gluconate, 2 MgCl2, 1.1 EGTA/KOH, 5 HEPES, 20 sucrose, 2 MgATP, 0.2 GTP; pH set to 7.2 with KOH and osmolarity adjusted with sucrose to 310 mOsm. The electrodes are then and dipped in Sigmacote (Sigma) prior to recording to reduce stray capacitance. […]

Compound | % Block of TOC, PROCEDURE 2 GH3 % [1] [%] | % Block of TOC, PROCEDURE 1 DRG % ([2]; 10 μM) [%] | further results
COc1ccc(C[C@@H]2CC[C@H]3NC[C@H](CO)C[C@@H]3C2)cc1 (racemic) [Example 2, (±)-(3RS,4aSR,6RS,8aRS)-1,2,3,4,4a,5,6,7,8,8a-Decahydro-3-hydroxymethyl-6-((4-methoxyphenyl)methyl)quinoline] | 31 |  | 
COc1ccc(C[C@H]2CC[C@H]3NC[C@H](CO)C[C@H]3C2)cc1 (racemic) [Example 4, (±)-(3RS,4aRS,6SR,8aRS)-1,2,3,4,4a,5,6,7,8,8a-Decahydro-3-hydroxymethyl-6-((4-methoxyphenyl)methyl)quinoline] | 56 |  | % Block of TOC, PROCEDURE 1 DRG % ([2]; 100 μM): 60%
COc1ccc(C[C@H]2CC[C@@H]3NC[C@H](CO)C[C@H]3C2)cc1 (relative stereo) [Example 3, (±)-(3RS,4aRS,6SR,8aSR)-1,2,3,4,4,a,5,6,7,8,8a-Decahydro-3-hydroxymethyl-6-((4-methoxyphenyl)methyl)quinoline] | 68 | 32 | 
Nc1ccncc1 [4-aminopyridine, reference compound] |  |  | block (standard compound), in words ([1]; @ 1-5 mM): block; block (standard compound) ([1]; at 5 mM): 80%; block of TOC (standard compound) ([2]; at 1 mM): 100%
COc1ccc(CC2CCC3NCC(CO)CC3C2)cc1 (stereo not drawn) [Example 1, 1,2,3,4,4a,5,6,7,8,8a-Decahydro-3-hydroxymethyl-6-((4-methoxyphenyl)methyl)quinoline] | 55 |  | 
COc1ccc(C[C@@H]2CC[C@H]3NC[C@H](CO)C[C@@H]3C2)cc1 [Example 6, (+)-(3R,4aS,6R,8aR)-1,2,3,4,4a,5,6,7,8,8a-Decahydro-3-hydroxymethyl-6-((4-methoxyphenyl)methyl)quinoline] |  | 29 | 
COc1ccc(C[C@H]2CC[C@@H]3[C@@H](CCCN3[C@H](C)c3ccccc3)C2)cc1 [Example 8, (+)-(1'R,4aS,6S,8aR)-1,2,3,4,4a,5,6,7,8,8a-Decahydro-6-((4-methoxyphenyl)methyl)-1-(1'-phenylethyl)quinoline] |  | 49 | 
COc1ccc(C[C@H]2CC[C@H]3NCCC[C@H]3C2)cc1 [Example 9, (-)-(4aS,6S,8aR)-3,4,4a,5,6,7,8,8a-Decahydro-6-((4-methoxyphenyl)methyl)quinoline] |  | 28 | 
